Earlier results in patent US20260110035A1, “DNA REPAIR SIGNATURE AND PREDICTION OF RESPONSE FOLLOWING CANCER THERAPY” (priority 2022, published 2026).

System: stage II/III TNBC
Details: BrighTNess; only carboplatin (Arm B) vs veliparib+carboplatin (Arm A), with paclitaxel followed by AC

N.N.O=C([O-])C1(C(=O)[O-])CCC1.[Pt+2] [carboplatin]
difference in pCR rates between Arm B and Arm A: no substantial difference
